Data on 2 compounds can be found in patent US20190077774A1, “PEROXISOME PROLIFERATOR-ACTIVATED RECEPTOR AGONISTS” (City of Hope, priority 2017, published 2019).

Common to all, as to type: in vivo
Series [1] can be described thus: Blood glucose in treated mice. Conditions: after 4 days (FIG. 16). From the text: FIG. 16. Enhanced PPARα expression and/or activity (particularly in concert with PGC-1α) is expected to increase blood glucose by upregulating gluconeogenic enzymes like PEPCK.
(§1) Next, we would like to investigate the therapeutic potential of DY121 to see if it could be candidate for treating NAFLD/NASH. Note that the pathogenesis of NASH has not yet been fully elucidated so far; however, the ‘two-hit’ theory is widely accepted. The first hit is the accumulation of fatty acids in the liver to cause steatosis. […] The newly produced PPARα agonist DY121 and its analogs, as well as WY100=WY14643 and GW3 (GW7647), were evaluated in C57Bl/6J female mice for their ability to alter serum triglyceride, liver gene expression, and glucose. Fibric acid derivatives (100 mg/kg/day) was used as a control, WY100 (WY14, 643, 100 mg/kg/day), GW3 (GW7647-positive control, 3 mg/kg/day), DY121 (˜3 mg/kg/day), respectively. DY series compounds and controls administered once to C57Bl/6J female mice at 8 weeks of age. Mice were treated at 3 mg/kg for all compounds except WY14643 (100 mg/kg).

For series [2], the system named is PPARα target genes in the liver. The experiment in a line: Liver gene expression of PPARα targets in treated mice (RT-qPCR). Conditions: for Cyp4A3 expression: chronic treatment (FIG. 13); for ACADM expression: time course (FIG. 18).
Text: FIG. 6. […] Data in same order as triglyceride suppression (FIG. 5). apo CIII and LPL expression inversely correlate with triglyceride suppression for many, but not all, compounds. ACOX1 and Cyp4A3 expression correlate with triglyceride suppression for many, but not all, compounds.
The following oligonucleotide primers were used to amplify insertion sequences: for PPARα, FW-5′-[…]-3′ (SEQ ID NO:1) and Rev-5′-[…]-3′ (SEQ ID NO:2); for RXRα, FW-5′ […]-3′ (SEQ ID NO:3) and Rev-5′-[…]-3′ (SEQ ID NO:4). It has been well established that PPARα agonists fibrates reduce plasma triglycerides largely by inducing hepatic PPARα-mediated transcription of key proteins in hepatic long-chain fatty acid […], such as CPT1 (carnitine palmitoyltransferase-1). DY121 promoted the expression of PPARα, CPT1, and LPL involved in free fatty acid β-oxidation. The mRNA expressions of the PPARα-regulated genes CPT-Ia and ACADM were measured by real-time quantitative-PCR (RT-qPCR). […] A structural specificity of DY121 may be responsible for this regulation. PPARα is predominantly expressed in liver. PPARα modulates fatty acid catabolism in the liver. We next measured the mRNA expression of PPARα target genes in the liver. PPARα agonists exert their actions and attributed to the activation of PPARα which in turn effects an increase in LPL (lipoprotein lipase) gene expression and transrepression of apoC-III (apolipoprotein C-III). Activation of PPARα by its modulators can increase PPARα levels and activate PPARα pathways, leading to increased fatty-acid oxidation and reduction of oxidative stress. DY121 and its analogs induced the expression of PPARα-regulated genes involved in lipid, glucose, and cholesterol metabolism, such as ACOX1 (acyl-CoA oxidase) and Cyp4A3 (cytochrome P450 gene subfamily). Members of the CYP4A gene subfamily catalyze the oxygenation of biologically important fatty acids.
as §1, with “DY series compounds and controls administered once to C57Bl/6J female mice at 8 weeks of age. Mice were treated at 3 mg/kg for all compounds except WY14643 (100 mg/kg).” left out

Series [3] is described as follows: Body weight and food intake of treated mice. To be noted: time course over 7 days (FIG. 9). Here is the method:
as §1

Another series concerns C57Bl/6J female mice. The series can be described thus: Serum triglyceride and lipid effects in C57Bl/6J female mice. Conditions: 7 day period (FIG. 10).

Structures are written as SMILES.

For the compound `CC(C)(Sc1ccc(CCN(CCCCC2CCCCC2)C(=O)NC2CCCCC2)cc1)C(=O)O` [GW7647, reference compound], the glucose result in series [1] is “increased after 4 days”. Further, the “liver CPT-Ia expression” value in series [2] (chronic (>3 d) treatment (FIG. 17)) is recorded as “upregulated”. Moreover, the Cyp4A3 expression entry in series [2] (liver) is on record as “consistently”. For the same compound, the ACADM expression entry in series [2] is on record as “upregulates”.

For the compound `Cc1cccc(Nc2cc(Cl)nc(SCC(=O)O)n2)c1C` [WY14643, reference compound], in series [1], the glucose entry was “increased after 4 days”. In series [3], the weight entry is “caused acute weight loss”. For the same compound, in series [2] (liver), the Cyp4A3 expression entry is recorded as “most greatly”. Further, the apoCIII expression entry in series [2] (liver, chronic treatment up to 7 days (FIG. 11)) was “suppressed apoCIII only after 7 days treatment”. In addition, the ACADM expression result in series [2] is listed as “upregulates”. In addition, in the series with C57Bl/6J female mice, the “triglycerides, chronic treatment” value is given as “suppressed triglycerides over the entire 7 day period”.
